Measurements reported in patent US20240173249A1, “COSMETIC COMPOSITION CONTAINING BEE POLLEN EXOSOME” (LG HOUSEHOLD & HEALTH CARE LTD., priority 2022, published 2024).

Columns and labels:
Format in all cases: cell-based
[1] = test system: human dermal fibroblast (HDF) cells; experiment: Collagen synthesis efficacy (procollagen type I C-peptide EIA); settings: positive control, 10 ng/ml, compared to untreated group
Description: To verify the collagen synthesis effect of the bee pollen exosome raw material prepared in Preparation Example 2, measurements were performed as follows.
In detail, the collagen synthesis effect was evaluated using human dermal fibroblast (HDF) cells. After pre-treating the cells with the bee pollen exosome raw material sample for 48 hours, collagen synthesis efficacy was measured using a human procollagen type I C-peptide (PIP) EIA kit. The collagen synthesis efficacy of the sample was determined by calculating the increased value in percentage (%), as compared to the untreated control group, and the results are shown in a table. 10 ng/ml TGF-b was used as a positive control group.
All of the above samples were diluted to 0.01% and 0.1% concentrations (v/v %) and evaluated.

Raw 264.7 cells = experiment: NO production inhibition, LPS-treated cells, NO quantification kit; settings: positive control, 200 ppm
Description: In order to verify the skin soothing and anti-inflammatory effects of the bee pollen exosome raw material prepared in Preparation Example 2, the NO production inhibitory effect was measured as follows, and compared with those of the pollen extract raw material, the bee pollen extract raw material, and the plant-derived exosome raw material which are the control groups.
In detail, the NO production inhibitory effects of the above samples were measured using Raw 264.7 cells. As a positive control, 20 mg/ml L-NMMA1 (NOS inhibitor) was used, and the samples were diluted to 0.01% and 0.1% concentrations (v/v %) and treated for 30 minutes, followed by treatment with 1 μg/ml LPS and culturing for 24 hours. Then, the ability to inhibit NO production was evaluated using a NO quantification kit as follows. All results were expressed as mean±standard deviation (SD) after three or more independent experiments.
NO production inhibitory ability (%)=(1−([…] NO production amount with sample addition))/(NO production amount without sample addition)×100

B16f10 melanocytes = experiment: Melanin production inhibition in melanocytes; settings: Mus musculus, B16-F10, positive control, read-out: inhibition of melanin synthesis
Description: In order to verify the whitening effect of the bee pollen exosome raw material prepared in Preparation Example 2, the melanin production-inhibitory effect was measured as follows.
In detail, the whitening efficacy of the bee pollen exosome raw material was evaluated by measuring the degree of reduction in the amount of melanin pigment present in melanocytes. The bee pollen exosome raw material was diluted to 0.01% and 0.1% concentrations (v/v %), and B16f10 melanocytes were treated therewith, and cultured for 72 hours, and melanin was quantified to evaluate the whitening efficacy. The melanin content was calculated based on the total protein amount, and the melanin production inhibition rate was calculated as %, based on a DMSO control group. 200 ppm of arbutin was treated as a positive control group.
In detail, the bee pollen extract raw material was prepared by grinding the same amount of bee pollens in the same manner as in preparing the bee pollen exosome, and by extracting using a general low-temperature extraction method of using purified water for 24 hours to 72 hours under the same temperature conditions (4° C. to 25° C.). […]

Question: With “TGF-b: 10 ng/ml TGF-b used as positive control for collagen synthesis” as the molecule, how does the collagen synthesis increase [1] read?
Answer: Its collagen synthesis increase is 29.87%.

Question: For `CNC(=N)NCCC[C@H](N)C(=O)O` [L-NMMA1], which “NO production inhibition ability” value (Raw 264.7 cells) is on record?
Answer: The value was 59.17%.

Question: Which inhibition at 200 ppm (B16f10 melanocytes) does the source give for `OC[C@H]1O[C@@H](Oc2ccc(O)cc2)[C@H](O)[C@@H](O)[C@@H]1O` [arbutin] here?
Answer: The inhibition at 200 ppm was 38.1%.
